# Test results published in ChEMBL document CHEMBL5244209, “Antiplasmodial and antimalarial activities of quinolone derivatives: An overview” (Eur J Med Chem, 2018).
# Assays:
# Type in all cases: functional, organism-based
# Plasmodium falciparum [1] = assay: Antimalarial activity against blood stage chloroquine-sensitive Plasmodium falciparum 3D7 infected in erythrocytes assessed as reduction in parasite growth preincubated for 72 hrs followed by addition of [3H]Hypoxanthine and measured after 24 hrs by liquid scintillation counting method; conditions: 3D7, Erythrocyte
# Plasmodium falciparum [2] = assay: Antimalarial activity against blood stage chloroquine-sensitive Plasmodium falciparum NF54-R infected in erythrocytes assessed as reduction in parasite growth preincubated for 72 hrs followed by addition of [3H]Hypoxanthine and measured after 24 hrs by liquid scintillation counting method; conditions: Erythrocyte
# Plasmodium falciparum [3] = assay: Antiplasmodial activity against Plasmodium falciparum D6 infected in human Erythrocyte measured after 72 hrs by SYBR green fluorescence dye based microplate reader analysis
# Plasmodium falciparum [4] = assay: Antiplasmodial activity against Plasmodium falciparum Dd2 infected in human Erythrocyte measured after 72 hrs by SYBR green fluorescence dye based microplate reader analysis
# Plasmodium falciparum [5] = assay: Antiplasmodial activity against Plasmodium falciparum Tm90-C2B infected in human Erythrocyte measured after 72 hrs by SYBR green fluorescence dye based microplate reader analysis
# Plasmodium falciparum [6] = assay: Antiplasmodial activity against chloroquine-sensitive Plasmodium falciparum 3D7 infected in human erythrocyte incubated for 72 hrs by SYBR green I staining based fluorescence assay; conditions: 3D7, Erythrocyte
# Plasmodium yoelii yoelii = assay: Antimalarial activity against hepatic stage Plasmodium yoelii yoelii 265 BY for 48 hrs with media renew every 24 hrs
# Plasmodium falciparum [7] = assay: Antimalarial activity against chloroquine-sensitive Plasmodium falciparum FCC1 measured after 48 hrs; conditions: FCC1, 48 h
# Plasmodium falciparum [8] = assay: Antimalarial activity against chloroquine-resistant Plasmodium falciparum VNS measured after 48 hrs
# Plasmodium falciparum [9] = assay: Antimalarial activity against Antimalarial activity against chloroquine-sensitive Plasmodium falciparum FCR-3
IC50 (Plasmodium yoelii yoelii) [µg/mL],SMILES,IC50 (Plasmodium falciparum [1]) [µg/mL],IC50 (Plasmodium falciparum [2]) [µg/mL],also measured
,CCn1cc(C(=O)O)c(=O)c2ccc(-c3ccncc3)cc21 [ROSOXACIN],87.9,10.6,
,CCCCCCCc1c(C)[nH]c2cc(C#N)ccc2c1=O,,,IC50 (Plasmodium falciparum [3]): 18 nM; IC50 (Plasmodium falciparum [4]): 45 nM
,CCCCCCCc1c(C)[nH]c2cc(Cl)ccc2c1=O,,,IC50 (Plasmodium falciparum [3]): 6 nM; IC50 (Plasmodium falciparum [5]): 64 nM; IC50 (Plasmodium falciparum [4]): 2 nM
,C=CC1CC2CCC1CC2[C@H](OC(=O)[C@H](Cc1ccccc1)NC(=O)C1=CN(CC)C2C=C3OCOC3=CC2C1=O)c1cccc2ccc(OC)cc12 (stereo not given in full),,,IC50 (Plasmodium falciparum [6]): 115 nM
> 100,CN1CCN(c2c(F)cc3c(=O)c(C(=O)O)cn(CCF)c3c2F)CC1 [FLEROXACIN],34.6,12.9,
,CNn1cc(C(=O)O)c(=O)c2cc(F)c(N3CCN(C)CC3)cc21 [AMIFLOXACIN],,,IC50 (Plasmodium falciparum [7]): 550 µM; IC50 (Plasmodium falciparum [8]): 870 µM
47.8,CN1CCN(c2c(F)cc3c(=O)c(C(=O)O)cn4c3c2SCC4)CC1 [RUFLOXACIN],81.9,30.1,
,C=CC1CC2CCC1CC2[C@H](OC(=O)[C@H](C)NC(=O)C1=CN2C3C(=C(N4CCN(C)CC4)C(F)=CC3C1=O)OC[C@@H]2C)c1cccc2ccc(OC)cc12 (stereo not given in full),,,IC50 (Plasmodium falciparum [6]): 33 nM
,C[C@@H]1CC[C@H]2[C@@H](C)C(=O)O[C@@H]3O[C@@]4(C)CC[C@@H]1[C@]32OO4 [ARTEMISININ],,,IC50 (Plasmodium falciparum [3]): 0.81 nM; IC50 (Plasmodium falciparum [5]): 2.1 nM; IC50 (Plasmodium falciparum [4]): 0.6 nM
,C=CC1CC2CCC1CC2[C@H](OC(=O)[C@@H](NC(=O)C1=CN(CC)C2C=C(C)C=CC2C1=O)C(C)C)c1cccc2ccc(OC)cc12 (stereo not given in full),,,IC50 (Plasmodium falciparum [6]): 16 nM
,Cn1cc(C(=O)N/N=C/c2ccccn2)c(=O)c2cc(F)ccc21,,,IC50 (Plasmodium falciparum [9]): 3.3 µM
,C=CC1CC2CCC1CC2[C@H](OC(=O)[C@@H](NC(=O)C1=CN(CC)C2C=C3OCOC3=CC2C1=O)C(C)C)c1cccc2ccc(OC)cc12 (stereo not given in full),,,IC50 (Plasmodium falciparum [6]): 183 nM
,Cn1cc(C(=O)N/N=C/c2ccccn2)c(=O)c2cc(C(F)(F)F)ccc21,,,IC50 (Plasmodium falciparum [9]): 6.2 µM
21.6,CCn1cc(C(=O)O)c(=O)c2cnc(N3CCCC3)nc21 [PIROMIDIC ACID],41.4,14.4,
,Cn1cc(C(=O)N/N=C/c2ccncc2)c(=O)c2cc(C(F)(F)F)ccc21,,,IC50 (Plasmodium falciparum [9]): > 100 µM
,CCCCCCCc1c(C)[nH]c2cc(OC(F)(F)F)ccc2c1=O,,,IC50 (Plasmodium falciparum [3]): 86 nM; IC50 (Plasmodium falciparum [5]): 102 nM; IC50 (Plasmodium falciparum [4]): 86 nM
> 100,CCn1cc(C(=O)O)c(=O)c2cnc(N3CCNCC3)nc21 [PIPEMIDIC ACID],40.9,10.5,
> 100,C[C@H]1COc2c(N3CCN(C)CC3)c(F)cc3c(=O)c(C(=O)O)cn1c23.C[C@H]1COc2c(N3CCN(C)CC3)c(F)cc3c(=O)c(C(=O)O)cn1c23.O [LEVOFLOXACIN],112,40.3,IC50 (Plasmodium falciparum [6]): > 20000 nM
> 100,CCn1cc(C(=O)O)c(=O)c2cc(F)c(-n3cccc3)cc21 [IRLOXACIN],49.4,10.5,
,CCCCCCCc1c(C)[nH]c2cc(F)cc(F)c2c1=O,,,IC50 (Plasmodium falciparum [3]): 0.1 nM; IC50 (Plasmodium falciparum [5]): 81 nM; IC50 (Plasmodium falciparum [4]): 1 nM
4.4,Cc1c(F)c(N2CCNC(C)C2)cc2c1c(=O)c(C(=O)O)cn2C1CC1 (stereo not given) [GREPAFLOXACIN],4.5,3.1,
,C=CC1CC2CCC1CC2[C@H](OC(=O)[C@@H](NC(=O)C1=CN(C2CC2)C2C=C(N3CCN(CC)CC3)C(F)=CC2C1=O)C(C)CC)c1cccc2ccc(OC)cc12 (stereo not given in full),,,IC50 (Plasmodium falciparum [6]): 207 nM
90.2,NC1CCN(c2c(F)cc3c(=O)c(C(=O)O)cn(C4CC4)c3c2Cl)C1 (stereo not given) [CLINAFLOXACIN],13.7,3.3,

SMILES,IC50 (Plasmodium yoelii yoelii) [µg/mL],IC50 (Plasmodium falciparum [1]) [µg/mL],IC50 (Plasmodium falciparum [2]) [µg/mL],also measured
CCn1cc(C(=O)O)c(=O)c2ccc(C)nc21 [NALIDIXIC ACID],> 100,117,59.1,IC50 (Plasmodium falciparum [6]): > 20000 nM
